The record followed here is patent publication US20110130390A1, “Use of COX-2 Inhibitors for the Treatment of Schizophrenia, Delusional Disorders, Affective Disorders, Autism or Tic Disorders” (priority 2001, published 2011).

The format of series [1] is in vivo, human. The following applies: FIG. 4.
The test system of series [2] is depressed patients. Nature of the series: Hamilton-Depression scale, 17-item version (HamD), celecoxib add-on to reboxetine trial. Type of series: in vivo, human. The following applies: 400 mg/day add-on to reboxetine, 6 weeks; ANOVA, Greenhouse-Geisser-corrected F=3.220; df 2.434; p=0.035; FIG. 10.
Procedure: The psychopathology of the patients was assessed by raters, who had undergone a training program, using the Hamilton-Depression scale, 17-item version (HamD), 24 Assessment of psychopathology and other examinations were performed at weekly intervals.
For statistics, analysis of variance was used for the HamD scale. The degrees of freedom for the within-subjects comparisons were corrected for deviance from sphericity (Greenhouse-Geisser). Post-hoc t tests were used for the weekly comparison of HamD scores. An intent to treat analysis was performed using the “last observation carried forward” (LOCF) procedure.
The test system of series [3] is depressed patients. The series can be described thus: Drop-outs and side-effects in the celecoxib add-on to reboxetine trial. The following applies: celecoxib 400 mg/day add-on to reboxetine, n = 20.
The next series concerns DBA/2Ola mice. Nature of the series: Forced swim test. Type of series: in vivo.
Text: Various behavioral test paradigms have been developed for evaluating the antidepressant properties of novel drugs in animals. One of the most reliable and specific paradigm is the forced swim test which has been successfully used to determine the effectiveness of antidepressants, evaluate new pharmaceutical compounds and validate animal models of depression (Porsolt et al. (1977) Arch. Int. Pharmacodym. 229:327-336; Porsolt (2000) Rev. Neurosci. 11:53-58; Rénńric et al. (2002)Behav. Brain Res. 136:521-532; Page et al. (2003) Psychopharmacology 165:194-201; Kelliher et al. (2003) Psychoneuroendocrinology 28:332-347). The test consists of placing a mouse for a period of 5 minutes into a glass cylinder containing a water depth of at least 15 cm. Under such circumstances, a mouse cannot touch the bottom of the cylinder and is thus forced to swim. Time, latency and frequency of struggling/swimming versus floating are scored as behavioral parameters. Floating (i.e. movements made only for keeping balance and breath) can be interpreted as a depression-like behavior that reflects either a failure of persistent escape-directed behavior (i.e. behavioral despair) or the development of passive behavior that disengages the animal from active forms of coping with stress stimuli. By contrast, increased struggling (i.e. vigorous attempts to escape) and swimming indicates active coping behavior and can be interpreted as an opposite to depression-like behavior.
The antidepressant activity of rofecoxib was assessed in animals according to the forced swim test. Briefly, rofecoxib was given orally by gavage to mice either in a single acute administration of 10 mg or in a repetitive chronic administration of 4 mg per day (2 mg at 9:00 in the morning, 2 mg at 18:00 in the evening) for 28 days. Control animals received a negative control consisting of water only. The forced swim test was performed 4 hour after the last administration of rofecoxib. […] All observed results were confirmed statistically using the one-way ANOVA test.
(§1) The antidepressant activity of valdecoxib was assessed in DBA/2Ola mice according to the forced swim test. Briefly, chronic administration of valdecoxib was performed by oral gavage for 28 days at a concentration of 4 mg per day (2 mg at 9:00 in the morning, 2 mg at 18:00 in the evening) and 20 mg per day (10 mg at 9:00 in the morning, 10 mg at 18:00 in the evening). Control animals received a placebo consisting of water only. The behavior of individual animals was assessed using the forced swim test 24 hours after the last administration of valdecoxib. A pre-exposure of 5 minutes to the test was done 4 hours after the last administration of valdecoxib. All observed results were confirmed statistically using the one-way ANOVA test.
as §1, with “etoricoxib” for “valdecoxib”, “DBA/201a” for “DBA/2Ola”, “etoricoxib” for “chronic administration of valdecoxib”, “chronically administered to mice” for “performed”, “etoricoxib.” for “valdecoxib.”
The antidepressant activity of the COX-2 inhibitor Cimicoxib was assessed in DBA/2Ola mice using the forced swim test. Briefly, chronic administration of cimicoxib was performed by oral gavage to mice for 28 days at a concentration of 2 or 10 mg per kg bodyweight per day (1 or 5 mg at 9:00 in the morning, 1 or 5 mg at 18:00 in the evening). Control animals received a placebo consisting of water only. […]

[4] abbreviates: chronic oral gavage 28 days, 2 or 10 mg per kg bodyweight per day, test 4 hours after the last administration, FIG. 9.
The mark [5] stands for this setting: chronic oral gavage 28 days, 4 mg per day and 20 mg per day, test 24 hours after the last administration.
Setting [6] is: chronic oral 4 mg per day for 28 days, test 4 hour after the last administration, FIG. 6.
The mark [7] stands for this setting: single acute oral administration of 10 mg, test 4 hour after administration, FIG. 6.

Procedure for schizophrenic patients: The psychopathology of the patients was assessed using the positive and negative syndrome scale (PANSS) (Kay et al., Schizophr. Bull. 1987, 13: 261-276). […] The statistics were performed according to the criterion of “last observation carried forward” (LOCF), i.e., the last PANSS scores of the patients who dropped out before the end of the study were carried forward to all subsequent observation days. For the comparison of the main efficacy parameter, the mean change in the PANSS between the two treatment groups, t-tests for independent samples were employed. […] For all other comparisons, two-tailed t-tests were used.

For `Cc1nc2n(c(=O)c1CCN1CCC(c3noc4cc(F)ccc34)CC1)CCCC2O` (centres unmarked) [9-OH-risperidone], in series [1], the “differences in the plasma levels between risperidone-celecoxib and risperidone-placebo treatment” value is on record as “without statistical significance”.

As to `Cc1ccc(-c2cc(C(F)(F)F)nn2-c2ccc(S(N)(=O)=O)cc2)cc1` [celecoxib], the “PANSS items lack of contact, emotional isolation, passive-apathic isolation, social withdrawal, depression, motor retardation” value with schizophrenic patients (analysis of items discriminating good celecoxib-responders from the placebo group) was “therapeutic effects”. Further, the “PANSS items subsumed under the label agitation” value in the series on schizophrenic patients (factor analysis, not seen with placebo) is “good therapeutic response”. Besides, in the series with depressed patients [2], the “comparison of HamD scores during therapy with celecoxib or placebo” value is “advantage of celecoxib-group”. For the same compound, in the series on depressed patients [3], the “cardiovascular events or side-effects, clinically and by ECG surveillance” value was “no cardiovascular events or side-effects were observed”; the “patients excluded or refusing further treatment due to a lack of therapeutic efficacy” value was “Five”.

For `COc1ccc(-c2c(Cl)ncn2-c2ccc(S(N)(=O)=O)cc2)cc1F` [cimicoxib], in the series on DBA/2Ola mice (setting [4]), the floating time result is “decrease” and the “struggling or swimming times” value is recorded as “statistically significant increase”.

Turning to `Cc1nc2n(c(=O)c1CCN1CCC(c3noc4cc(F)ccc34)CC1)CCCC2` [risperidone], the “differences in the plasma levels between risperidone-celecoxib and risperidone-placebo treatment” value in series [1] is reported as “without statistical significance”.

In the case of `Cc1onc(-c2ccccc2)c1-c1ccc(S(N)(=O)=O)cc1` [valdecoxib], in the series on DBA/2Ola mice (setting [5]), the floating time entry is listed as “decreasing” and the “struggling or swimming times” value is given as “statistically increased”.

As to etoricoxib, in the series with DBA/2Ola mice (setting [5]), the floating time result is recorded as “decreasing” and the “struggling or swimming times” value is “statistically increased or showed a tendency to increase”.

For rofecoxib, in the series on DBA/2Ola mice (setting [6]), the floating time result is “decreasing” and the “struggling or swimming times” value is on record as “statistically increased”. In the series on DBA/2Ola mice (setting [7]), the floating time entry is “decreasing” and the “struggling or swimming times” value is given as “statistically increased”.
